The values that follow come from patent US9044482B2, “Use of aminoindane compounds in treating overactive bladder and interstitial cystitis” (priority 2012, dated 2015).

Test [1] deals with isolated detrusor bladder muscle. Briefly: In vitro assay on isolated bladder detrusor muscle strips, EFS-induced contractions in organ bath. Further details: species or system guinea pig. Conditions: for IC50, inhibition of EFS-induced detrusor contractions: cumulative concentration-response, isolated guinea pig detrusor strips; for steady-state inhibition of EFS-induced contractile response: drug 0.01% in organ bath. Here is the method:
Whole bladders were removed from euthanized female guinea pigs, longitudinal detrusor muscle strips were dissected from each bladder and were mounted in a conventional glass organ bath and perfused continuously with an oxygenated Krebs solution. Detrusor contractions were elicited in response to electrical field stimulation (EFS) and were recorded using isometric force transducers linked to a data acquisition software system. After an equilibration period, tissue strips were subjected to regular EFS for a period of 30 minutes or until stable baseline contractions were attained.

Test [2] has as its system micturition pattern. The following applies: animal model of IC and OAB; cited from earlier work.
Test [3] concerns noxious urinary bladder distention. The following applies: in vivo; cited from earlier work.
The test system of test [4] is bladder function. Briefly: In vivo assay of bladder function (cystometry) in conscious rats. More on the design: species or system rat. The procedure: This study was performed in order to assess the effects of compounds on various aspects of bladder function in conscious rats. See, Clouse, 2012, Urology 79(6):1410e1-1410e6. Rats were prepared with indwelling polyethylene catheters positioned into the bladder through the dome and exteriorized at the scapular level. […] pressure was monitored by connecting the catheter to a commercial strain gauge via a T-connector that permitted the infusion of solutions and drugs. Cystometric recording commenced 48 hours after catheter implantation. Animals were continuously administered saline, with or without test compounds, through the catheter, at a rate of 2 mL/hr. Urine was collected and weighed using a force transducer and intravesical pressure was continually monitored in order to assess micturition amplitude, frequency and volume and bladder capacity. Saline perfusions were supplemented with test compounds in order to determine the effects on each of the above bladder function parameters.

Setting [5] is: infusion of 0.3% solution into bladder, conscious rats.

With `CCN(CC)CC(=O)Nc1c(C)cccc1C` [lidocaine, reference compound], the “recovery of EFS-induced contractile response after washout” value in test [1] (0.01%, by 2 hours after washing out) is “around 80 % of predrug levels”. For the same compound, in test [1], the “IC50, inhibition of EFS-induced detrusor contractions” value was around 0.001% and the “steady-state inhibition of EFS-induced contractile response” value is around 40%. The “micturition pattern as determined by cystometry” value in test [2] is reported as “normalizes the micturition pattern”.

On to `Cc1cccc(C)c1OCC(C)N` (stereo not shown) [mexilitine], for which, in test [3], the “painful sensation of noxious urinary bladder distention” value is reported as “prevents the painful sensation”.

As for `Cc1ccccc1N(CC[C@H]1CCCC[N+]1(C)C)C1Cc2ccccc2C1.[I-]` [(R)-1,1-dimethyl-2-[2-((indan-2-yl)(2-methylphenyl)amino)ethyl]piperidinium iodide], in test [4] (compared to lidocaine), the “duration of action on micturition frequency” value was “longer duration of action”.

`Cc1ccccc1N(CC[C@H]1CCCC[N+]1(C)C)C1Cc2ccccc2C1.[Br-]` [example 43, (R)-1,1-dimethyl-2-[2-((indan-2-yl)(2-methylphenyl)amino)ethyl]piperidinium iodide]: the “time for which steady state inhibition was maintained after drug had been eliminated from the organ bath” value in test [1] (0.01%) is reported as “at least 2 hours”. In test [1], the “IC50, inhibition of EFS-induced detrusor contractions” value was around 0.0001% and the “steady-state inhibition of EFS-induced contractile response” value is 30-45%. Moreover, the “potency relative to lidocaine alone” value in test [1] (from IC50 for inhibition of EFS-induced detrusor contractions) is listed as “about 10 fold”. Besides, the “period of effect on bladder capacity and micturition volume after administration” value in test [4] (infusion of 0.3% solution) turned out to be 2 h. In addition, in test [4] (setting [5]), the bladder capacity entry is on record as “increase in bladder capacity” and the micturition volume result is recorded as “decrease in micturition volume”.
